Test results reported in patent EP4722213A1, “NITROGEN-CONTAINING FUNCTIONAL GROUP-SUBSTITUTED PYRIDAZINOPYRIDONE DERIVATIVE AND USE THEREOF” (Sichuan Huiyu Pharmaceutical Co., Ltd., priority 2023, dated 2024).
Like-named read-outs stand apart in the source and are kept apart here.

Assays:
[1] = Mouse pharmacokinetic test; type: in vivo; details: plasma, female Balb/c mice, IV 1 mg/kg, PO 10 mg/kg via gavage
Procedure: Female Balb/c mice, weighing 19-21 g, were divided into two groups based on the principle of similar body weight, with 9 mice in each of the IV group and the PO group (for cross blood collection). The IV group was administered the test compound at a dose of 1 mg/kg via intravenous injection, and the PO group was administered the test compound at a dose of 10 mg/kg via gavage. Whole blood was collected from the IV group before administration and at 0.083, 0.25, 0.5, 1, 2, 4, 6, 8, and 24 h after administration; for the PO group, whole blood was collected before administration and at 0.25, 0.5, 1, 2, 4, 6, 8, and 24 h after administration. The blood samples were placed in K2-EDTA anticoagulant tubes, centrifuged (4°C) within 30 minutes to separate plasma, and stored at -80°C for subsequent testing. During sample processing, an appropriate amount of acetonitrile containing an internal standard was used for protein precipitation, vortexed, and after centrifugation, the supernatant was taken for injection into LC-MS/MS for detection. Based on the measured plasma drug concentrations, the main pharmacokinetic parameters were calculated to evaluate its pharmacokinetic behavior. The main pharmacokinetic parameters were analyzed by the non-compartmental model using WinNonLin 8.3 software.

Rat pharmacokinetic test = type: in vivo; details: plasma, male SD rats, IV 1 mg/kg, PO 5 mg/kg via gavage
Procedure: Male SD rats, weighing 200-250 g, were used and divided into two groups based on the principle of similar body weight, with 3 rats in each of the IV group and the PO group. The IV group was administered the test compound at a dose of 1 mg/kg via intravenous injection, and the PO group was administered the test compound at a dose of 5 mg/kg via gavage. Whole blood was collected from the IV group respectively before administration and at 0.083, 0.25, 0.5, 1, 2, 4, 6, 8, and 24 h after administration; for the PO group, whole blood was collected before administration and at 0.25, 0.5, 1, 2, 4, 6, 8, and 24 h after administration. The blood samples were placed in K2-EDTA anticoagulant tubes, centrifuged (4°C) within 30 min to separate plasma, and stored at -80°C for subsequent testing. During sample processing, an appropriate amount of acetonitrile containing an internal standard was used for protein precipitation, vortexed, and after centrifugation, the supernatant was taken for injection into LC-MS/MS for detection. Based on the measured plasma drug concentrations, the main pharmacokinetic parameters were calculated to evaluate its pharmacokinetic behavior. The main pharmacokinetic parameters were analyzed by the non-compartmental model using WinNonLin 8.3 software.

CYP2C19 = target: T1, CYP2C19 (Homo sapiens, UniProt P33261); assay: Inhibition of hepatic drug-metabolizing enzymes in human liver microsomes; type: in vitro ADME; details: human liver microsomes; read-out: Inhibitory activity on drug-metabolizing enzymes (IC50, µM) CYP2C19
T1 construct: human liver microsomes were used as the CYP450 enzyme source; from tissue; host or cells: human liver microsomes
Description: (§1) The main site of drug metabolism is the liver, and the main component of the mixed-function oxidase system present in the liver is the CYP450 enzyme. This enzyme system causes most clinically observed drug-drug interactions, which in turn leads to an increased incidence of adverse drug reactions. CYP450 is a group of supergene family composed of many isozymes, wherein CYP3A4 acts as a major metabolizing enzyme and is involved in the metabolism of nearly half of clinically used drugs. Similarly, CYP2C9 and CYP2C19 also act as important metabolizing enzymes and are involved in the metabolism of various drugs clinically. Therefore, evaluating the risk of drug-drug interactions by testing the inhibitory activity of compounds on CYP450 enzymes at an early stage can improve the safety of medication use.
(§2) In the present disclosure, human liver microsomes were used as the CYP450 enzyme source. The specific probe substrates for each CYP isoenzyme (wherein CYP3A4 used two substrates, midazolam and testosterone, denoted as CYP3A4-M and CYP3A4-T respectively) were incubated with a series of concentrations of the test compound in the presence of the cofactor NADPH. The production amount of metabolites of probe substrates in the incubation system was determined by LC-MS/MS, and the IC50 values of the test compound against each CYP450 enzyme subtype were calculated to evaluate its inhibitory effect on each CYP450 enzyme subtype. During the experiment, 49 µL of PBS, 50 µL of probe substrate, and 50 µL of human liver microsome working solution were sequentially added to the incubation system, followed by the addition of 1 µL of the test compound working solution at each concentration, and the mixture was mixed well. After pre-incubation at 37°C for 5 min, 50 µL of NADPH was added to initiate the reaction. After incubation for the corresponding time, an appropriate amount of ice-cold acetonitrile containing an internal standard was added to terminate the reaction. The mixture was vortexed to mix well, centrifuged, and the supernatant was taken. The supernatant was injected into LC-MS/MS to determine the production amount of metabolites of the probe substrate. Taking the enzyme activity at the 0-concentration point (characterized by the production amount of metabolites) as 100%, the percentage of residual enzyme activity of metabolites at different concentrations of the test compound was calculated. IC50 was calculated by the residual enzyme activity using Graphpad Prism software.

CYP2C9 = target: T2, CYP2C9 (Homo sapiens, UniProt P11712); assay: as above; type: in vitro ADME; details: human liver microsomes; read-out: Inhibitory activity on drug-metabolizing enzymes (IC50, µM) CYP2C9
T2 construct: human liver microsomes were used as the CYP450 enzyme source; from tissue; host or cells: human liver microsomes
Description: as §1, §2

[2] = Rat liver microsomal metabolic stability; type: in vitro ADME; details: rat liver microsomes; for half-life at 1 µM: NADPH, 37°C; for CLint scaled at 1 µM: calculated from T1/2, fu defaulted to 1, read-out: CL(liver)
Outline: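 Rat liver microsomes (1 mg/mL working solution) with test compound (working solution 100 µM) were pre-incubated 5 min at 37 °C, then started with NADPH (4.0 mM working solution). Residual compound measured by LC-MS/MS over time. T1/2 taken from first-order decay, scaled to CLint and hepatic CL with fu = 1.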

CYP3A4 = target: T3, CYP3A4 (Homo sapiens, UniProt P08684); assay: Inhibition of hepatic drug-metabolizing enzymes in human liver microsomes (substrates midazolam and testosterone); type: in vitro ADME
T3 construct: human liver microsomes were used as the CYP450 enzyme source; from tissue; host or cells: human liver microsomes
Description: as §1, §2

SOS1 = target: T4, SOS1 (Homo sapiens, UniProt Q07889); assay: biochemical
T4 sequence (Q07889 1-1333): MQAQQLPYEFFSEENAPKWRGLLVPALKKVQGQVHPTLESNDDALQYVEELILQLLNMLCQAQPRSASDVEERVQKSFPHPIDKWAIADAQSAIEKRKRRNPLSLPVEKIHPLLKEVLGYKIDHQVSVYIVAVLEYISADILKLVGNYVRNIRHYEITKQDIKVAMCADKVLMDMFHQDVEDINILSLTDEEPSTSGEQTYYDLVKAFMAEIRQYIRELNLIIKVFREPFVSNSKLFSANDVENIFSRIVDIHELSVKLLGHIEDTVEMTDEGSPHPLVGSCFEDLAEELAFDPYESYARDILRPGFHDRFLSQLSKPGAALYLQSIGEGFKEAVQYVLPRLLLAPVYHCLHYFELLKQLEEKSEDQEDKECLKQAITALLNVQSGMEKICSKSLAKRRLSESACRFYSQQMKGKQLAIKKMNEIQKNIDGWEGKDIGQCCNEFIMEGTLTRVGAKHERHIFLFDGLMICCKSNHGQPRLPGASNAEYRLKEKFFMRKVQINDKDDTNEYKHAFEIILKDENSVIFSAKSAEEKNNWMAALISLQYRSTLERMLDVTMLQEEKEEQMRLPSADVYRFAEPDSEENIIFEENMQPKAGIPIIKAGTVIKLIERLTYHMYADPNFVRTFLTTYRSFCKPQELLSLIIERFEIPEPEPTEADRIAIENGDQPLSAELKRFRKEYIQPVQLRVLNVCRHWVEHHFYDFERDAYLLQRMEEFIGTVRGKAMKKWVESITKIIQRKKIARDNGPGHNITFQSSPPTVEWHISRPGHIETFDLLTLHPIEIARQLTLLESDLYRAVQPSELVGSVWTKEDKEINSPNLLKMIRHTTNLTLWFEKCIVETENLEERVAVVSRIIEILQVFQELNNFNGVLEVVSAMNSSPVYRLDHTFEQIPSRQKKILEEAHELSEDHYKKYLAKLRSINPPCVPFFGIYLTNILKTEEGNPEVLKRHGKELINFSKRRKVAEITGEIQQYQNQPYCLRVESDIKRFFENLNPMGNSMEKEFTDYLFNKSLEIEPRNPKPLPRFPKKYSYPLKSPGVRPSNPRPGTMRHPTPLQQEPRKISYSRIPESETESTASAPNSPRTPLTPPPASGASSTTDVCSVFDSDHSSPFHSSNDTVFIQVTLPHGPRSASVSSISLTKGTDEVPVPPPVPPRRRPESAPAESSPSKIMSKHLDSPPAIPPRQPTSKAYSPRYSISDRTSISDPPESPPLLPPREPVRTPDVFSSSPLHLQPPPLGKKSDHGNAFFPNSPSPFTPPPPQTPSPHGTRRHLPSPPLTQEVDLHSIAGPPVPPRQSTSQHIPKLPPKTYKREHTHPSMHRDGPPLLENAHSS

[3] = substrate midazolam, read-out: Inhibitory activity on drug-metabolizing enzymes (IC50, µM) CYP3A4-M
[4] = substrate testosterone, read-out: Inhibitory activity on drug-metabolizing enzymes (IC50, µM) CYP3A4-T

T2 sequence (P11712 whole entry): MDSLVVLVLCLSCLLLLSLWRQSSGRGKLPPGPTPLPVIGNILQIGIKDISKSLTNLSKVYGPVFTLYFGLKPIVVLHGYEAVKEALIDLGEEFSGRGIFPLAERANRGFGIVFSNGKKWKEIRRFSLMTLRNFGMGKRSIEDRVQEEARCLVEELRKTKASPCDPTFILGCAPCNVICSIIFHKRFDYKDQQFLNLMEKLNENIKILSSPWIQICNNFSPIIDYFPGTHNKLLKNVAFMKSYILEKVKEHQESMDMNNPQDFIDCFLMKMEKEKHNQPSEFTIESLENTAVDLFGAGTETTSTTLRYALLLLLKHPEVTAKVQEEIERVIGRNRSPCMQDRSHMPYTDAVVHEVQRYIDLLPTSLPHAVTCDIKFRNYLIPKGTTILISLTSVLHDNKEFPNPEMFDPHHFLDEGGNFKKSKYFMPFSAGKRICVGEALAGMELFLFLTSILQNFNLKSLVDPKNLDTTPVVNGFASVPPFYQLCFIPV
T3 sequence (P08684 whole entry): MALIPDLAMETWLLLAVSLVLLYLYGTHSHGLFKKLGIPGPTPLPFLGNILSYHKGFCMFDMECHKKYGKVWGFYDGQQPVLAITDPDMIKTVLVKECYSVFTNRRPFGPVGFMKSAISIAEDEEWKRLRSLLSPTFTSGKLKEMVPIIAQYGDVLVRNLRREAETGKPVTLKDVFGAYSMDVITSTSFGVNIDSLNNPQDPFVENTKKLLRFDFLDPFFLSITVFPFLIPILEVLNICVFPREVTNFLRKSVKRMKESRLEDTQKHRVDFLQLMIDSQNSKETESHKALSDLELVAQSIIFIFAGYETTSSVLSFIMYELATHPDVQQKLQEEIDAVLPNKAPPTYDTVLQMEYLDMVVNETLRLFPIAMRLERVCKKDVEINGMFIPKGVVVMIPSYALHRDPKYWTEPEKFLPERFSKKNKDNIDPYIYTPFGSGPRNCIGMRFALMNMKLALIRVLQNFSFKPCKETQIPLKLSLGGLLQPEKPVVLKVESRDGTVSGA
T1 sequence (P33261 whole entry): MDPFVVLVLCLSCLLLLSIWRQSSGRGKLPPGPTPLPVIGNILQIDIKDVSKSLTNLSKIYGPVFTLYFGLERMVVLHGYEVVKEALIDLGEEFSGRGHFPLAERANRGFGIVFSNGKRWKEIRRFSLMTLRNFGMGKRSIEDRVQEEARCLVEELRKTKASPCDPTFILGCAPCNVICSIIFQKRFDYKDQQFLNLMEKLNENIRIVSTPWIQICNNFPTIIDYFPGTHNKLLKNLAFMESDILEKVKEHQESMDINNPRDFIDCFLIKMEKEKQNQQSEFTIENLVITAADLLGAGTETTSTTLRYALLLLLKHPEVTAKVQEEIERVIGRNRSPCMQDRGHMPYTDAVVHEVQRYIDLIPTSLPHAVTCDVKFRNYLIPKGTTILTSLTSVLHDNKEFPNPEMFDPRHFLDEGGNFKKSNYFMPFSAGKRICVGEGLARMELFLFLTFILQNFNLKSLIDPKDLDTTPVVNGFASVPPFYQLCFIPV

| Compound | bioavailability [1] [%] | bioavailability (Rat pharmacokinetic test) [%] | IC50 (CYP2C19) [µM] | IC50 (CYP2C9) [µM] | half-life at 1 µM [2] [h] | CLint scaled at 1 µM [2] [mL/min/kg] | IC50 (CYP3A4; Inhibitory activity on drug-metabolizing enzymes (IC50, µM) CYP3A4-M, substrate midazolam) [µM] | IC50 (CYP3A4; Inhibitory activity on drug-metabolizing enzymes (IC50, µM) CYP3A4-T, substrate testosterone) [µM] | IC50 (CYP3A4; [3]) [µM] | IC50 (CYP3A4; [4]) [µM] | IC50 (SOS1) [µM] |
| --- | --- | --- | --- | --- | --- | --- | --- | --- | --- | --- | --- |
| Cc1c(C#N)cccc1[C@@H](C)Nc1nnc(C)c2cnc(N3CCOCC3)cc12 [MRTX0902, reference compound] | 40.4 | 22.6 | 8.62 | 4 | 0.0483 | 51.9 | 6.9 | 8.75 | – | – | – |
| C[C@@H](Nc1nnc(N)c2cc(=O)n(C3CC3)cc12)c1cccc(C(F)F)c1F [Example 75, (R)-1-amino-6-cyclopropyl-4-((1-(3-(difluoromethyl)-2-fluorophenyl)ethyl)amino)pyrido[3,4-d]pyridazin-7(6H)-one] | – | – | > 10 | > 10 | > 5 | < 7.23 | – | – | > 10 | > 10 | 0.0048 |
| C[C@@H](Nc1nnc(N)c2cc(=O)n(C3(C)CC3)cc12)c1cccc(C(F)F)c1F.O=CO [Example 74, (R)-1-amino-4-((1-(3-(difluoromethyl)-2-fluorophenyl)ethyl)amino)-6-(1-methylcyclopropyl) pyrido[3,4-d]pyridazin-7(6H)-one formate] | – | – | > 10 | > 10 | > 5 | < 7.23 | – | – | > 10 | > 10 | 0.0046 |
| CNc1nnc(N[C@H](C)c2cccc(C(F)F)c2F)c2cn(C3CC3)c(=O)cc12 [Example 13, (R)-6-cyclopropyl-4-((1-(3-(difluoromethyl)-2-fluorophenyl)ethyl)amino)-1-(methylamino)pyrid o[3,4-d]pyridazin-7(6H)-one] | – | – | > 10 | > 10 | 3.97 | 8.8 | – | – | > 10 | > 10 | 0.0046 |
